Where two headings read alike, the source gives them in different places.
What was measured:
[1] = test system: numerous different representative virus types; assay: antiviral activity, plaque-reduction tests against numerous virus types; type: cell-based; details: in words
[2] = test system: transformed (tumor) cells; assay: antitumor activity (general statement); type: cell-based; details: in words
Text: The compounds of the present invention, and pharmaceutical compositions containing the same, display a drastic influence on the growth patterns and on the morphological appearance of various experimentally-transformed cells in tissue culture while, at the same time, not influencing these properties of normal cell cultures.

same viral strain = assay: refined plaque reduction assay; type: cell-based; details: read-out: IC50 (50% reduction in plaque forming units)
selected herpes viruses = assay: resistance development test; type: cell-based; details: prolonged suboptimal concentrations, manifold passage
[3] = test system: primate (monkey) cells transformed by human brain tumor (oligodendroglioma) DNA; assay: Low Serum Test
Description: Normal cells fail to grow under these conditions.
In this test, as a tissue culture, primate (monkey) cells are used which have acquired the transformed phenotype after exposure of the cells to human brain tumor (oligodendroglioma) genetic substance (DNA). A genetically-homogeneous transformed tissue culture (a clonal line) is exposed to forty (40) micrograms per milliliter of the test compound for a period of four (4) days. Parallel cultures are maintained during the treatment.
After the transient exposure to the drug, the cells are suspended in drug-free medium (at pH 7.2) containing ten percent (10%) serum, or in low-serum (0.5%).

Influenza A2 = assay: plaque inhibition test, influenza; type: cell-based; details: Substance concentration: 200γ/0,02 ml; 1% solution; chick fibroblasts
Vaccine virus = type: cell-based; details: Substance concentration: 200γ/0,02 ml; 1% solution; chick fibroblasts
Herpes virus = assay: plaque inhibition test, herpes; type: cell-based; details: Substance concentration: 200γ/0,02 ml; 1% solution; human amnion cells
various virus strains = assay: in-vitro plaque reduction test; type: cell-based; details: 20 γ/ml
Coxsackie B5 = assay: plaque-reduction test, Coxsackie B5; type: cell-based; details: twenty micrograms per milliliter, on the order of, read-out: Percentage PFU compared with control at 100%
Description: (§1) The compounds of the invention are active in the plaque-reduction test, a standard test for determining antiviral activity and potency, as already stated. One such standard direct plaque assay is that described by E. C. Herrmann Jr. et al., Proc. Soc. Exptl. Biol. Med. 103, 625 […]. This is the test procedure first employed and its principle is well established. It involves the following: Tissue culture cells are grown in small wells as monolayers and infected with appropriate virus dilutions. They are then overlayed with semisolid media to prevent spreading of the viral progeny to originally-uninfected cells. From the infected cells alone, foci of secondary infections develop within three (3) days, and these can be visualized as plaques after appropriate staining according to well-known procedure. To determine the inhibitory effect of a compound, the compound is administered directly onto the infected cells prior to the addition of the overlay, and the virus yield is then compared with the yield from untreated infected cell cultures. The percentage of plaque reduction or inhibition is then expressed in comparison with the 100% plaque-forming units (PFU) as taken from the uninhibited control.
(§2) When compared with the uninhibited control, plaque reduction with a compound of the invention at twenty micrograms per milliliter was on the order of the following: […]

HSV-I = assay: plaque-reduction test, HSV-I; type: cell-based; details: Human alphaherpesvirus 1, twenty micrograms per milliliter, on the order of, read-out: Percentage PFU compared with control at 100%
Description: as §1, §2

HSV-I-ISO 3 = assay: plaque-reduction test, HSV-I-ISO 3; type: cell-based; details: twenty micrograms per milliliter, on the order of, read-out: Percentage PFU compared with control at 100%
Description: as §1, §2

HSV-I-WA = assay: plaque-reduction test, HSV-I-WA; type: cell-based; details: twenty micrograms per milliliter, on the order of, read-out: Percentage PFU compared with control at 100%
Description: as §1, §2

HSV II-HG-52 = assay: plaque-reduction test, HSV II-HG-52; type: cell-based; details: twenty micrograms per milliliter, on the order of, read-out: Percentage PFU compared with control at 100%
Description: as §1, §2

HSV I-ISO 6 = assay: plaque-reduction test, HSV I-ISO 6; type: cell-based; details: twenty micrograms per milliliter, on the order of, read-out: Percentage PFU compared with control at 100%
Description: as §1, §2

VSV = assay: microbe, parasite or virus in culture; type: cell-based; details: Vesicular stomatitis virus, read-out: Percentage PFU compared with control at 100%
HSV-I-A NG = assay: plaque-reduction test, HSV-I-A NG; type: cell-based; details: 5.5 micrograms/ml, on the order of, read-out: Percentage PFU compared with control at 100%
Description: as §1, §2

[4] = test system: transformed hamster cells; assay: reversion of transformed hamster cells (FIG. 3); type: cell-based; details: 20 micrograms per milliliter
Text: FIG. 3 is a graph showing the reversion of transformed malignant phenotype cells shown in FIG. 1, i.e., transformed hamster cells which produce tumors in the animal, to phenotypically normal or flat revertant cells of the type shown in FIG. 2, which reversion was accomplished by a transient treatment of the malignant cells in tissue culture medium with twenty (20) micrograms per milliliter of a compound of the invention, in this case the compound D609, for three (3) succeeding passages, the period of each passage having a duration of one week. In the graph, the empty circles depict untreated cultures, whereas the solid circles depict […].

skin tumors = assay: skin tumor prevention experiment in mice; type: in vivo
Text: In tumor-prevention experiments, the compounds of the present invention are found to prevent tumors in animals. In a representative carcinogenesis experiment, skin tumors are induced in mice according to the procedure of G. Fuerstenberger, D. L. Berry, B. Sorg, and F. Marks, "Skin Tumor Promotion by Phorbol Ester a Two-Stage Process", Proc. Natl. Acad. Sci., USA 78, 7722-7726 (1981). In replicate experiments, conducted under closely controlled conditions, and with identical strains of mice, seventeen (17) out of eighteen (18) animals in the control group developed skin tumors after a period of three (3) months. […] In the case of the treated animals, only one (1) out of the eighteen (18) animals developed a discernible skin tumor.

[5] = test system: Herpes simplex virus (HSV-I, especially strain HSV-I-ISO 3); assay: plaque-reduction assay, Herpes simplex virus; type: cell-based; details: Human alphaherpesvirus 1
[6] = refined procedure, same pH and environmental conditions, same viral strain

CC1(C)C2CCC1(C)C(C1CCCCC1OC(=S)S)C2 (centres unmarked)
antiviral activity (relative to reference compound) [1]: essentially the same antiviral and antitumor activity as D622 | antitumor activity (relative to reference compound) [2]: essentially the same antiviral and antitumor activity as D622

S=C(S)O[C@H]1C[C@H]2CC[C@@H]1C2 (relative stereo) [Example 6, Potassium 2-endo-bicyclo[2.2.1^1.4]-heptyl xanthate]
IC50 (same viral strain): 3 µg/mL | development of resistance (selected herpes viruses): under no conditions was resistance found to have developed | variability of antitumor effectiveness with environment and pH (relative to D609) [3]: somewhat less variable with environment and pH than in the case of the compound D609

S=C(S)O[C@@H]1C[C@H]2CC[C@@H]1C2 (relative stereo) [Example 8, Potassium 2-exo-bicyclo[2.2.1^1,4]-heptyl xanthate]
IC50 values (relative to D611) [1]: essentially identical with those of the compound D611, including IC50 values | antiviral activity (relative to reference compound) [1]: essentially identical with those of the compound D611 | antitumor activity (relative to reference compound) [2]: essentially identical with those of the compound D611

S=C(S)O[C@H]1C[C@H]2CC[C@@H]1C2 (relative stereo) [Example 9, Sodium 2-endo-bicyclo [2.2.1^1,4]-heptyl xanthate]
Virustatic properties Influenza (inhibition areola) (Influenza A2): ++ (good (IA 20-30 mm)) | Virustatic properties Vaccine (inhibition areola) (Vaccine virus): +++ (very good (IA > 30 mm)) | Virustatic properties Herpes (inhibition areola) (Herpes virus): +++ (very good (IA > 30 mm)) | antiviral activity (relative to reference compound) [1]: essentially the identical antiviral and antitumor activity as the corresponding potassium salt (D611) | antitumor activity (relative to reference compound) [2]: essentially the identical antiviral and antitumor activity as the corresponding potassium salt (D611)

Cl.NC12CC3CC(CC(C3)C1)C2 [1-Aminoadamantane hydrochloride, reference compound]
Virustatic properties Influenza (inhibition areola) (Influenza A2): +++ (very good (IA > 30 mm)) | Virustatic properties Vaccine (inhibition areola) (Vaccine virus): 0 | Virustatic properties Herpes (inhibition areola) (Herpes virus): 0 | inhibition at 20 µg/mL (various virus strains): 10%

S=C([S-])OC1CCCCCCCCCCC1.[Na+] [Example 1, Sodium cyclododecyl xanthate]
Virustatic properties Influenza (inhibition areola) (Influenza A2): +++ (very good (IA > 30 mm)) | Virustatic properties Vaccine (inhibition areola) (Vaccine virus): +++ (very good (IA > 30 mm)) | Virustatic properties Herpes (inhibition areola) (Herpes virus): +++ (very good (IA > 30 mm)) | inhibition at 20 µg/mL (various virus strains): 100% | IC50 (same viral strain; [6]): 2.5 µg/mL | development of resistance (selected herpes viruses): under no conditions was resistance found to have developed | variability of antitumor effectiveness with environment and pH (relative to D609) [3]: somewhat less variable with environment and pH than in the case of the compound D609

S=C(S)OCc1ccccc1 [Example 2, Sodium benzyl xanthate]
Virustatic properties Influenza (inhibition areola) (Influenza A2): + (moderate (IA 10-20 mm)) | Virustatic properties Vaccine (inhibition areola) (Vaccine virus): + (moderate (IA 10-20 mm)) | Virustatic properties Herpes (inhibition areola) (Herpes virus): + (moderate (IA 10-20 mm)) | IC50 (same viral strain; [6]): > 30 µg/mL

S=C([S-])OC1CCCCC1.[Na+] [Example 3, Sodium cyclohexyl xanthate]
Virustatic properties Influenza (inhibition areola) (Influenza A2): ++ (good (IA 20-30 mm)) | Virustatic properties Vaccine (inhibition areola) (Vaccine virus): +++ (very good (IA > 30 mm)) | Virustatic properties Herpes (inhibition areola) (Herpes virus): +++ (very good (IA > 30 mm)) | inhibition at 20 µg/mL (various virus strains): 100% | IC50 (same viral strain; [6]): 9.5 µg/mL

S=C(S)OC12CC3CC(CC(C3)C1)C2 [Example 5, Potassium adamantyl xanthate]
Virustatic properties Influenza (inhibition areola) (Influenza A2): + (moderate (IA 10-20 mm)) | Virustatic properties Vaccine (inhibition areola) (Vaccine virus): + (moderate (IA 10-20 mm)) | Virustatic properties Herpes (inhibition areola) (Herpes virus): + (moderate (IA 10-20 mm)) | IC50 (same viral strain; [6]): > 10 µg/mL

S=C(S)OC1CC2CC1C1CCCC21 (centres unmarked) [Example 7, Potassium 8(9)tricyclo[5.2.1.0^2,6]decyl xanthate]
activity at 20 µg/mL (Coxsackie B5): 4% | activity at 20 µg/mL (HSV-I): 2.5% | activity at 20 µg/mL (HSV-I-ISO 3): 1.05% | activity at 20 µg/mL (HSV-I-WA): 0.9% | activity at 20 µg/mL (HSV II-HG-52): 0.3% | activity at 20 µg/mL (HSV I-ISO 6): 0.1% | activity at 20 µg/mL (VSV): 0.05% | activity at 5.5 µg/mL (HSV-I-A NG): 0.1% | IC50 (same viral strain; [6]): 3 µg/mL | development of resistance (selected herpes viruses): under no conditions was resistance found to have developed | loss of the transforming tumor producing genomes ([4]; three passages): permanent loss of the transforming tumor producing genomes | reversion of transformed phenotype ([4]; three succeeding passages of one week each): disappearance of the transformed colonies or cells and their conversion into phenotypically normal or flat revertant cells | animals that developed a discernible skin tumor (skin tumors; epicutaneous, 3 micrograms per milliliter in acetone, twice weekly for 3 months, control 17 of 18): 1 out of the eighteen (18) animals | development of tumors (skin tumors; in words): almost completely impeded | pH dependence of antiviral activity ([3]; pH 6.8 compared with 7.25-7.8): most effectively at a pH of 6.8

CC1(C)C2CCC1(C)C(C1CCC(OC(=S)S)CC1)C2 (centres unmarked) [Example 10, Potassium 4(or para)-isobornylcyclohexyl xanthate]
IC50 [5]: 1.9 µg/mL | antiviral activity (relative to reference compound) [1]: essentially identical with that for the compound D609, but somewhat superior thereto | antitumor activity (relative to reference compound) [2]: essentially identical with that for the compound D609, but somewhat superior thereto

CCCCCCCCCCCCOC(=S)[S-].[Na+] [n-Dodecyl Na, Sodium dodecyl xanthate]
Virustatic properties Influenza (inhibition areola) (Influenza A2): +++ (very good (IA > 30 mm)) | Virustatic properties Vaccine (inhibition areola) (Vaccine virus): +++ (very good (IA > 30 mm)) | Virustatic properties Herpes (inhibition areola) (Herpes virus): +++ (very good (IA > 30 mm)) | inhibition at 20 µg/mL (various virus strains): 100% | IC50 (same viral strain; [6]): 7 µg/mL

CCCCCCOC(=S)[S-].[K+] [potassium n-hexyl xanthate]
virustatic / antiviral activity [1]: active virustatic agents

CCCCCCOC(=S)[S-].[Na+] [sodium n-hexyl xanthate]
virustatic / antiviral activity [1]: active virustatic agents
